# Measured values: the supplement of paper PMC10307832
# Compound: O=C(/C=C/c1ccccc1)NC(NC(=S)Nc1cccc2cccnc12)C(Cl)(Cl)Cl [Salubrinal]
# Assay: relative viability (nuclei count vs DMSO), 5 days (fraction); higher = more cells survive
# Settings: 0.08 µM
# Summary of the method: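 Lung cancer cell lines in 1536-well plates were kept overnight at 37 °C, then pinned with five library-drug doses (not always all listed) spaced by √10 on vehicle-anchored plates. After 5 days without medium change, cells were fixed, permeabilised and Hoechst-stained in one step, imaged at 4×, and nuclei were counted with MetaXpress. Viability is treated-well nuclei divided by vehicle-well nuclei, taken as the median over plates. Plates passed only with control CV below 25% and at least one doubling.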
row,Cell Line,relative viability
1,SK-LU-1,1.11
2,NCI-H1395,0.882
3,201T,1.03
4,NCI-H1915,0.973
5,HCC-827,1.04
6,LXF-289,1.04
7,NCI-H23,1.11
8,NCI-H1299,1.03
9,NCI-H647,1.18
10,CAL-12T,1.09
11,NCI-H1651,1.13
12,EPLC-272H,0.917
13,NCI-H2228,1.23
14,NCI-H1792,1.05
15,NCI-H1355,1.11
16,NCI-H3122,1.08
17,NCI-H1437,0.992
18,NCI-H1755,1.07
19,NCI-H2023,1.15
20,HCC-15,1.13
21,PC-14,1.11
22,EKVX,1.04
23,LC-2-ad,1.01
24,NCI-H1563,1.01
25,NCI-H1975,0.93
26,RERF-LC-KJ,1.05
27,ABC-1,0.978
28,NCI-H1944,1.11
29,NCI-H650,0.839
30,PC-3 [JPC-3],1.05

# Same assay, conditions: 0.253 µM
row,Cell Line,relative viability
1,SK-LU-1,0.905
2,NCI-H1395,1.01
3,201T,0.869
4,NCI-H1915,0.856
5,HCC-827,1.07
6,LXF-289,0.945
7,NCI-H23,0.858
8,NCI-H1299,1.06
9,NCI-H647,0.98
10,CAL-12T,0.956
11,NCI-H1651,0.905
12,EPLC-272H,0.884
13,NCI-H2228,0.757
14,NCI-H1355,0.941
15,NCI-H3122,1
16,NCI-H1437,0.922
17,NCI-H1755,1.04
18,NCI-H2023,0.996
19,HCC-15,0.93
20,PC-14,0.96
21,EKVX,0.837
22,LC-2-ad,0.921
23,NCI-H1563,0.942
24,NCI-H1975,0.82
25,RERF-LC-KJ,1.02
26,ABC-1,0.909
27,NCI-H1944,1.01
28,NCI-H650,1.04
29,PC-3 [JPC-3],0.915

# Same assay, conditions: 0.8 µM
row,Cell Line,relative viability
1,SK-LU-1,1.19
2,NCI-H1395,1.08
3,201T,1.12
4,NCI-H1915,1.12
5,HCC-827,1.01
6,LXF-289,1.01
7,NCI-H23,1.18
8,NCI-H1299,1
9,NCI-H647,1.11
10,CAL-12T,1.08
11,NCI-H1651,1.13
12,EPLC-272H,1.07
13,NCI-H2228,1.21
14,NCI-H1792,1.32
15,NCI-H1355,1.03
16,NCI-H3122,1.09
17,NCI-H1437,1.12
18,NCI-H1755,1.06
19,NCI-H2023,1.06
20,HCC-15,1.14
21,PC-14,1.13
22,EKVX,1.01
23,LC-2-ad,1.13
24,NCI-H1563,0.943
25,NCI-H1975,1.01
26,RERF-LC-KJ,1.04
27,ABC-1,0.902
28,NCI-H1944,0.975
29,NCI-H650,1.08
30,PC-3 [JPC-3],1.16

# Same assay, conditions: 2.53 µM
row,Cell Line,relative viability
1,SK-LU-1,1.11
2,NCI-H1395,1.01
3,201T,1.02
4,NCI-H1915,1.01
5,HCC-827,1.01
6,LXF-289,0.995
7,NCI-H23,0.995
8,NCI-H1299,0.996
9,NCI-H647,0.964
10,CAL-12T,1.03
11,NCI-H1651,0.964
12,EPLC-272H,0.98
13,NCI-H2228,1.04
14,NCI-H1792,1.01
15,NCI-H1355,0.979
16,NCI-H3122,1.05
17,NCI-H1437,1.02
18,NCI-H1755,0.959
19,NCI-H2023,0.955
20,HCC-15,1.08
21,PC-14,1
22,EKVX,1.06
23,LC-2-ad,0.99
24,NCI-H1563,0.919
25,NCI-H1975,1.04
26,RERF-LC-KJ,0.98
27,ABC-1,1.01
28,NCI-H1944,0.962
29,NCI-H650,1.11
30,PC-3 [JPC-3],1.04

# Same assay, conditions: 8 µM
row,Cell Line,relative viability
1,SK-LU-1,0.878
2,NCI-H1395,0.769
3,201T,0.983
4,NCI-H1915,0.973
5,HCC-827,1.03
6,LXF-289,0.975
7,NCI-H23,1.08
8,NCI-H1299,0.987
9,NCI-H647,0.884
10,CAL-12T,0.888
11,NCI-H1651,0.988
12,EPLC-272H,0.765
13,NCI-H2228,0.968
14,NCI-H1792,0.811
15,NCI-H1355,0.955
16,NCI-H3122,1.01
17,NCI-H1437,0.968
18,NCI-H1755,0.968
19,NCI-H2023,0.781
20,HCC-15,0.963
21,PC-14,0.862
22,EKVX,1.04
23,LC-2-ad,0.93
24,NCI-H1563,0.911
25,NCI-H1975,0.935
26,RERF-LC-KJ,0.888
27,ABC-1,0.849
28,NCI-H1944,1
29,NCI-H650,0.912
